In the kinase profiling compilation of Christmann-Franck et al. (2016):

Tests used:
Experiment in all cases: KINOMEscan competition binding
Details in all cases: compound 10.0 µM
[1] = system: ABL1 (human), P00519 [Q252H]
PIP5K1C (human) = PIP5K1C (human) (UniProt O60331)
MARK3 (human) = MARK3 (human) (UniProt P27448)
[2] = system: PIK3CA (human), P42336 [E545A]
TAOK2 (human) = TAOK2 (human) (UniProt Q9UL54)
STK32A (human) = STK32A (human) (UniProt Q8WU08)
DYRK2 (human) = DYRK2 (human) (UniProt Q92630)
ERBB3 (human) = ERBB3 (human) (UniProt P21860)
DCLK2 (human) = DCLK2 (human) (UniProt Q8N568)
PRKG2 (human) = PRKG2 (human) (UniProt Q13237)
GRK7 (human) = GRK7 (human) (UniProt Q8WTQ7)
CASK (human) = CASK (human) (UniProt O14936)
PIK3C2G (human) = PIK3C2G (human) (UniProt O75747)
MAP3K6 (human) = MAP3K6 (human) (UniProt O95382)
ICK (human) = ICK (human) (UniProt Q9UPZ9)
GRK4 (human) = GRK4 (human) (UniProt P32298)
[3] = system: EGFR (human), P00533 [T790M/L858R]
[4] = system: PIK3CA (human), P42336 [H1047Y]
TRPM6 (human) = TRPM6 (human) (UniProt Q9BX84)
[5] = system: PIK3CA (human), P42336 [M1043I]
[6] = system: KIT (human), P10721 [A829P]
OXSR1 (human) = OXSR1 (human) (UniProt O95747)
SGK3 (human) = SGK3 (human) (UniProt Q96BR1)
PRKCI (human) = PRKCI (human) (UniProt P41743)
CSNK1A1L (human) = CSNK1A1L (human) (UniProt Q8N752)
ERN1 (human) = ERN1 (human) (UniProt O75460)
MAK (human) = MAK (human) (UniProt P20794)
MAP3K15 (human) = MAP3K15 (human) (UniProt Q6ZN16)
STK38 (human) = STK38 (human) (UniProt Q15208)
[7] = system: MET (human), P08581 [Y1235D]
[8] = system: LRRK2 (human), Q5S007 [G2019S]
PRPF4B (human) = PRPF4B (human) (UniProt Q13523)
IRAK4 (human) = IRAK4 (human) (UniProt Q9NWZ3)
GRK1 (human) = GRK1 (human) (UniProt Q15835)
MARK2 (human) = MARK2 (human) (UniProt Q7KZI7)
HIPK3 (human) = HIPK3 (human) (UniProt Q9H422)
SGK110 (human) = SGK110 (human) (UniProt P0C264)
PI4KB (human) = PI4KB (human) (UniProt Q9UBF8)
VRK2 (human) = VRK2 (human) (UniProt Q86Y07)
SBK1 (human) = SBK1 (human) (UniProt Q52WX2)
CPK1 (P.falciparum) = system: CPK1 (P.falciparum)
NEK3 (human) = NEK3 (human) (UniProt P51956)

Chain of ERN1 (human) (O75460 whole entry, looked up): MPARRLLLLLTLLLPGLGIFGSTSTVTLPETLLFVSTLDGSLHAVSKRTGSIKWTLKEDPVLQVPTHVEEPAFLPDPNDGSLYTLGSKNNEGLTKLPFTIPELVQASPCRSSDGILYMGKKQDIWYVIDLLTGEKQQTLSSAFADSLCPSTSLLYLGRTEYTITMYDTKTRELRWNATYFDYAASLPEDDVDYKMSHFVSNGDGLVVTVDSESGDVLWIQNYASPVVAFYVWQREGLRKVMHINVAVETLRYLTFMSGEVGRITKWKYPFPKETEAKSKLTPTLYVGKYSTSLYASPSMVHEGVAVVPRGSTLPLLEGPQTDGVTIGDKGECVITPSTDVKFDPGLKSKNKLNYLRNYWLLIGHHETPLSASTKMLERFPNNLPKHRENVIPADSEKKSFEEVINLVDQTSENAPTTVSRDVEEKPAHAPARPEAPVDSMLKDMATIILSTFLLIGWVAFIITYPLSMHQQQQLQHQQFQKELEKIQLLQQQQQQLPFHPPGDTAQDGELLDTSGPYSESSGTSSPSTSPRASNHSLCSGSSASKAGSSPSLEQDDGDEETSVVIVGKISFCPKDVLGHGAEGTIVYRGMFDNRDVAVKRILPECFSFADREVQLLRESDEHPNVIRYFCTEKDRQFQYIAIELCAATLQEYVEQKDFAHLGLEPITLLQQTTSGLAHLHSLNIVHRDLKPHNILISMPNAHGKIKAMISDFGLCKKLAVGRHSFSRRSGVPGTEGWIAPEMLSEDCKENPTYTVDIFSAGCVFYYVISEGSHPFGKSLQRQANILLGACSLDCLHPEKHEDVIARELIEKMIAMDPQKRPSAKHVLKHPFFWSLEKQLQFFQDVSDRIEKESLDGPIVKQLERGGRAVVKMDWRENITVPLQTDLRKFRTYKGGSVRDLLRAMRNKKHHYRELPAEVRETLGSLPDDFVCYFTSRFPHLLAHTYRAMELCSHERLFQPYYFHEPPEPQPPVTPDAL
Chain of OXSR1 (human) (O95747 whole entry, looked up): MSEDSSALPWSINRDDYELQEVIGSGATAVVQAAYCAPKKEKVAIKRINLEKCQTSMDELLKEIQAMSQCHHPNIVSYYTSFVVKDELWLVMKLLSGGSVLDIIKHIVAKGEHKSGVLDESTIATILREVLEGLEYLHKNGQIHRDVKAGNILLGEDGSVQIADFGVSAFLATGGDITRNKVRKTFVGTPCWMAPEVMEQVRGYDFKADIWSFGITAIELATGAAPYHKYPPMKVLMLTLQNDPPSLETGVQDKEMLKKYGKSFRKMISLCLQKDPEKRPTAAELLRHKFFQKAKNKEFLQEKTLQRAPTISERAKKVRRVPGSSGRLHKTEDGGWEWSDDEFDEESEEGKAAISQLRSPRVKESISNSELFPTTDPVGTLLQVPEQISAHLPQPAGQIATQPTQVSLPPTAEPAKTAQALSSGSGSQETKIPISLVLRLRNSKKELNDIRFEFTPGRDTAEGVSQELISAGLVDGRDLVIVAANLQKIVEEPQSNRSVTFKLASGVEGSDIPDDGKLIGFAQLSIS
Chain of CSNK1A1L (human) (Q8N752 whole entry, looked up): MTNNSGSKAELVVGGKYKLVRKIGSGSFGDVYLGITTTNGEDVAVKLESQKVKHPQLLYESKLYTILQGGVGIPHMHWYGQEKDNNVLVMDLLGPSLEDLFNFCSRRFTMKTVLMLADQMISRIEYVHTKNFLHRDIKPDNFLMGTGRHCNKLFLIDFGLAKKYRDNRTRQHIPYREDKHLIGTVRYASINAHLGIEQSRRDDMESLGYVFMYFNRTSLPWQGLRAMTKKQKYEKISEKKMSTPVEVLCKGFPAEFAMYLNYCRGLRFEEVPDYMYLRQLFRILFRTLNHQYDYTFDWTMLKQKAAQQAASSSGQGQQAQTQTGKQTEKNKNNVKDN
Chain of IRAK4 (human) (Q9NWZ3 whole entry, looked up): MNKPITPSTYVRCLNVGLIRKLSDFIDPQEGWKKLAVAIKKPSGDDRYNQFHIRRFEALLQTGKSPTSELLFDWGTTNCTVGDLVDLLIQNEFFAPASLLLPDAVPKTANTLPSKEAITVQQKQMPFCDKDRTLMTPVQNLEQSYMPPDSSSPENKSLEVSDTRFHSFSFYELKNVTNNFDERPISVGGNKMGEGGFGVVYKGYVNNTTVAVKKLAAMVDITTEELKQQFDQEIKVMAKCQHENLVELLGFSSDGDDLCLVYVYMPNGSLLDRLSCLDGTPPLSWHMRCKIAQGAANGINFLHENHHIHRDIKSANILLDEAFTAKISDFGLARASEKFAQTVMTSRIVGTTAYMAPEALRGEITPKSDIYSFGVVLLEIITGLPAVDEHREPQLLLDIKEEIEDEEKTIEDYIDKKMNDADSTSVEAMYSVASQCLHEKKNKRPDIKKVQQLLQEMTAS
Chain of MAK (human) (P20794 whole entry, looked up): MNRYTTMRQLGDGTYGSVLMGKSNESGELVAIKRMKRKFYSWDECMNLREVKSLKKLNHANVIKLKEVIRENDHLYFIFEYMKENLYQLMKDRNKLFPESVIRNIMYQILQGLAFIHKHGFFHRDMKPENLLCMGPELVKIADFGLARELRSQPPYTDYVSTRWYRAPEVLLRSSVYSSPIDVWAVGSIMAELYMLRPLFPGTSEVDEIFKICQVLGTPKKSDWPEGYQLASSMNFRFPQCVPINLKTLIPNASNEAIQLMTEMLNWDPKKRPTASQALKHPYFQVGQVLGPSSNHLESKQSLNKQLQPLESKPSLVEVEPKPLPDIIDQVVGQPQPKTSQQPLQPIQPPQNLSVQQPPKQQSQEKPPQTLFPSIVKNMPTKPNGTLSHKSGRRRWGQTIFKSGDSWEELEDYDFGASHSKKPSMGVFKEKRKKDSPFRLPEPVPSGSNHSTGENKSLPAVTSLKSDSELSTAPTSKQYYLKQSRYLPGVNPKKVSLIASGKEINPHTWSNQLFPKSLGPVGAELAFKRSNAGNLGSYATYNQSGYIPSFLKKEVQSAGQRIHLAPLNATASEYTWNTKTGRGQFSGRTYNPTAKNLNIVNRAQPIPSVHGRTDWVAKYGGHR
Chain of STK32A (human) (Q8WU08 whole entry, looked up): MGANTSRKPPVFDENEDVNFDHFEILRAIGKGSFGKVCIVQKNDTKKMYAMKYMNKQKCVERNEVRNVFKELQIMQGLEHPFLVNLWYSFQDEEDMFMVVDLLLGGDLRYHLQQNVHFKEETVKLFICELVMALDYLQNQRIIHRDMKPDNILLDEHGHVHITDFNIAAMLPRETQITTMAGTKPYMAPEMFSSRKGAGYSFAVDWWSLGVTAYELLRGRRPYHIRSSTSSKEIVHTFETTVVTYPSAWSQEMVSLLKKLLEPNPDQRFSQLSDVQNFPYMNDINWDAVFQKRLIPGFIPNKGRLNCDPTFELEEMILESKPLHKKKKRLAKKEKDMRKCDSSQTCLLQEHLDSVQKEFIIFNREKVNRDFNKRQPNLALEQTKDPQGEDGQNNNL
Chain of GRK7 (human) (Q8WTQ7 whole entry, looked up): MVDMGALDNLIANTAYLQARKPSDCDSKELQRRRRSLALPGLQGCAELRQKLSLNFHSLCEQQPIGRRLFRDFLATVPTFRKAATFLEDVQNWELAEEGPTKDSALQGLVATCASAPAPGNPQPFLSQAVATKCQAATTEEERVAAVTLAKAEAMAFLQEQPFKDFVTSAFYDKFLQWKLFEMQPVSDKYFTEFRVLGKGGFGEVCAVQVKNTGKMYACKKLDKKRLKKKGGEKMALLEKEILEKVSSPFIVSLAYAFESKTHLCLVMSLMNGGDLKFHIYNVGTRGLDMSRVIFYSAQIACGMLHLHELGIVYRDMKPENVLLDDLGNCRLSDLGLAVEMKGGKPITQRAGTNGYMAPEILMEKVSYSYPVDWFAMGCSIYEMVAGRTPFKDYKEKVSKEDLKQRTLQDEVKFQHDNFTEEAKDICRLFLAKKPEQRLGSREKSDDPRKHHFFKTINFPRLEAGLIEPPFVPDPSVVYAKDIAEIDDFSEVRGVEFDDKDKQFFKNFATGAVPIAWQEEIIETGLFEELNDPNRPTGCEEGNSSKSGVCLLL
Chain of PIP5K1C (human) (O60331 whole entry, looked up): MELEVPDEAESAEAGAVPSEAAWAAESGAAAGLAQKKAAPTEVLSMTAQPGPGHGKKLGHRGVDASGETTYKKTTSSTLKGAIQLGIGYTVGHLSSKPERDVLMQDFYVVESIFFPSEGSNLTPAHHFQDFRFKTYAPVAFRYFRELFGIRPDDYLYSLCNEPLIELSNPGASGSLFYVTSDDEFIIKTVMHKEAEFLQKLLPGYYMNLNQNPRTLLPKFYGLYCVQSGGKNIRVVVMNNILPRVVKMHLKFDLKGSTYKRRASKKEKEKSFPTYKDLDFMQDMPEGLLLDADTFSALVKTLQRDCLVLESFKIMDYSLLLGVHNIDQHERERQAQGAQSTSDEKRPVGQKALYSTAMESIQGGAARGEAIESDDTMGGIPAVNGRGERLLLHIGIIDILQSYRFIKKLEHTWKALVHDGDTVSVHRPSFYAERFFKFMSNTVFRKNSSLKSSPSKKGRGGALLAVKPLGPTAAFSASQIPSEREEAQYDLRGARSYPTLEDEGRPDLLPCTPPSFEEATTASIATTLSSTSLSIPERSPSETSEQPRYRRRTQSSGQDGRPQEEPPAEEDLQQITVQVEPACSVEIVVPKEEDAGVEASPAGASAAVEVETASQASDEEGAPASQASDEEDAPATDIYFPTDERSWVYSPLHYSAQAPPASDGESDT
Chain of SGK110 (human) (P0C264 whole entry, looked up): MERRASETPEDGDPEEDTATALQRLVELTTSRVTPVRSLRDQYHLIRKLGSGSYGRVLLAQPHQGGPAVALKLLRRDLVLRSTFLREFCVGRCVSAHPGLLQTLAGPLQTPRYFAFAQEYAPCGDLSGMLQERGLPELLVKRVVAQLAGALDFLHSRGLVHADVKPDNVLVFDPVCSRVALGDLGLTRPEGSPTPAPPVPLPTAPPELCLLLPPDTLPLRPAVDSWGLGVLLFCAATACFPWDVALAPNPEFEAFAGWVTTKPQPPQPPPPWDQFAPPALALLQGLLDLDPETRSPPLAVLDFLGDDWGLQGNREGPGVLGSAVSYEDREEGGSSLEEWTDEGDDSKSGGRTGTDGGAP

Question: With `COc1cc(N2CCC(N3CCN(C)CC3)CC2)ccc1Nc1ncc(Cl)c(Nc2ccccc2S(=O)(=O)C(C)C)n1` as the compound, how does the kinase still bound, per cent of control [1] read?
Answer: 2.2%

Question: Which results are given for `CCOc1cc(N2CCC(N3CCCCC3)CC2)ccc1Nc1nc(Nc2ccccc2S(=O)(=O)C(C)C)c2cn[nH]c2n1`?
Answer: kinase still bound, per cent of control (PIP5K1C (human)): 82%; kinase still bound, per cent of control (MARK3 (human)): 100%; kinase still bound, per cent of control [2]: 100%; kinase still bound, per cent of control (TAOK2 (human)): 66%; kinase still bound, per cent of control (STK32A (human)): 32%; kinase still bound, per cent of control (DYRK2 (human)): 90%; kinase still bound, per cent of control (ERBB3 (human)): 55%; kinase still bound, per cent of control (DCLK2 (human)): 19%; kinase still bound, per cent of control (PRKG2 (human)): 100%; kinase still bound, per cent of control (GRK7 (human)): 100%; kinase still bound, per cent of control (CASK (human)): 100%; kinase still bound, per cent of control (PIK3C2G (human)): 100%; kinase still bound, per cent of control (MAP3K6 (human)): 99%; kinase still bound, per cent of control (ICK (human)): 89%; kinase still bound, per cent of control (GRK4 (human)): 92%; kinase still bound, per cent of control [3]: 25%; kinase still bound, per cent of control [4]: 100%; kinase still bound, per cent of control (TRPM6 (human)): 100%; kinase still bound, per cent of control [5]: 100%; kinase still bound, per cent of control [6]: 100%; kinase still bound, per cent of control (OXSR1 (human)): 0.05%; kinase still bound, per cent of control (SGK3 (human)): 92%; kinase still bound, per cent of control (PRKCI (human)): 100%; kinase still bound, per cent of control (CSNK1A1L (human)): 78%; kinase still bound, per cent of control (ERN1 (human)): 92%; kinase still bound, per cent of control (MAK (human)): 100%; kinase still bound, per cent of control (MAP3K15 (human)): 77%; kinase still bound, per cent of control (STK38 (human)): 98%; kinase still bound, per cent of control [7]: 100%; kinase still bound, per cent of control [8]: 4.8%; kinase still bound, per cent of control (PRPF4B (human)): 100%; kinase still bound, per cent of control (IRAK4 (human)): 87%; kinase still bound, per cent of control (GRK1 (human)): 98%; kinase still bound, per cent of control (MARK2 (human)): 86%; kinase still bound, per cent of control (HIPK3 (human)): 79%; kinase still bound, per cent of control (SGK110 (human)): 100%; kinase still bound, per cent of control (PI4KB (human)): 58%; kinase still bound, per cent of control (VRK2 (human)): 68%; kinase still bound, per cent of control (SBK1 (human)): 57%; kinase still bound, per cent of control (CPK1 (P.falciparum)): 44%; kinase still bound, per cent of control (NEK3 (human)): 76%

Question: Which results are given for `CCN1CCN(Cc2ccc(NC(=O)c3ccc(C)c(/C=C/c4cnc(Nc5cc(N6CCNCC6)nc(C)n5)cn4)c3)cc2C(F)(F)F)CC1`?
Answer: kinase still bound, per cent of control (PIP5K1C (human)): 65%; kinase still bound, per cent of control (MARK3 (human)): 58%; kinase still bound, per cent of control [2]: 100%; kinase still bound, per cent of control (TAOK2 (human)): 5.7%; kinase still bound, per cent of control (STK32A (human)): 100%; kinase still bound, per cent of control (DYRK2 (human)): 74%; kinase still bound, per cent of control (ERBB3 (human)): 100%; kinase still bound, per cent of control (DCLK2 (human)): 100%; kinase still bound, per cent of control (PRKG2 (human)): 88%; kinase still bound, per cent of control (GRK7 (human)): 73%; kinase still bound, per cent of control (CASK (human)): 72%; kinase still bound, per cent of control (PIK3C2G (human)): 87%; kinase still bound, per cent of control (MAP3K6 (human)): 93%; kinase still bound, per cent of control (ICK (human)): 71%; kinase still bound, per cent of control (GRK4 (human)): 80%; kinase still bound, per cent of control [3]: 65%; kinase still bound, per cent of control [4]: 68%; kinase still bound, per cent of control (TRPM6 (human)): 67%; kinase still bound, per cent of control [5]: 73%; kinase still bound, per cent of control [6]: 33%; kinase still bound, per cent of control (OXSR1 (human)): 76%; kinase still bound, per cent of control (SGK3 (human)): 80%; kinase still bound, per cent of control (PRKCI (human)): 74%; kinase still bound, per cent of control (CSNK1A1L (human)): 99%; kinase still bound, per cent of control (ERN1 (human)): 71%; kinase still bound, per cent of control (MAK (human)): 49%; kinase still bound, per cent of control (MAP3K15 (human)): 100%; kinase still bound, per cent of control (STK38 (human)): 79%; kinase still bound, per cent of control [7]: 93%; kinase still bound, per cent of control [8]: 75%; kinase still bound, per cent of control (PRPF4B (human)): 85%; kinase still bound, per cent of control (IRAK4 (human)): 77%; kinase still bound, per cent of control (GRK1 (human)): 100%; kinase still bound, per cent of control (MARK2 (human)): 100%; kinase still bound, per cent of control (HIPK3 (human)): 48%; kinase still bound, per cent of control (SGK110 (human)): 100%; kinase still bound, per cent of control (PI4KB (human)): 63%; kinase still bound, per cent of control (VRK2 (human)): 62%; kinase still bound, per cent of control (SBK1 (human)): 82%; kinase still bound, per cent of control (CPK1 (P.falciparum)): 0.2%; kinase still bound, per cent of control (NEK3 (human)): 59%

Question: `CCN1CCN(Cc2ccc(NC(=O)c3ccc(C)c(Oc4ccnc5[nH]ccc45)c3)cc2C(F)(F)F)CC1` was tested. Which kinase still bound, per cent of control [1] did it give?
Answer: 0.4%
